Measured values as given in ChEMBL document CHEMBL1131475, “Discovery of ritonavir, a potent inhibitor of HIV protease with high oral bioavailability and clinical efficacy” (J Med Chem, 1998).

Columns and labels:
[1] = in vivo; conditions: rat, plasma, po, 10 mg/kg
[2] = in vivo; conditions: rat, plasma, po
[3] = Oral bioavailability in rat; format: ADME, organism-based; conditions: in vivo
[4] = in vivo; conditions: rat, plasma, iv
[5] = in vivo; conditions: rat, plasma, po; remark: listed apart in the source

SMILES	Cmax [1]	AUC [2]	bioavailability [3]	half-life [4]	Tmax [5]
CC(C)c1nc(CN(C)C(=O)NC(C(=O)N[C@@H](Cc2ccccc2)[C@@H](O)C[C@H](Cc2ccccc2)NC(=O)OCc2cccnc2)C(C)C)co1 (stereo not given in full)	0.29 µM	0.09 µg·h/mL	3.3%	17.4 min	6 min
COc1ccc(CN(C)C(=O)NC(C(=O)N[C@@H](Cc2ccccc2)C[C@H](O)[C@H](Cc2ccccc2)NC(=O)OCc2cccnc2)C(C)C)nc1 (stereo not given in full)	1.05 µM	0.29 µg·h/mL	5.7%	34.2 min	6 min
COc1cncc(CN(C)C(=O)NC(C(=O)N[C@@H](Cc2ccccc2)C[C@H](O)[C@H](Cc2ccccc2)NC(=O)OCc2cccnc2)C(C)C)c1 (stereo not given in full)	0.18 µM	0.05 µg·h/mL	0.4%	16.8 min	9 min
CC(C)C(NC(=O)N(C)Cc1ccccn1)C(=O)N[C@@H](Cc1ccccc1)[C@@H](O)C[C@H](Cc1ccccc1)NC(=O)OCc1ccoc1 (stereo not given in full)	1.02 µM	0.5 µg·h/mL	9.3%	64.2 min	24 min
Cc1cnc(COC(=O)NC(C(=O)N[C@@H](Cc2ccccc2)C[C@H](O)[C@H](Cc2ccccc2)NC(=O)OCc2cccnc2)C(C)C)cn1 (stereo not given in full)	0.86 µM	0.19 µg·h/mL	6%	12.6 min	18 min
COc1ccc(COC(=O)NC(C(=O)N[C@@H](Cc2ccccc2)C[C@H](O)[C@H](Cc2ccccc2)NC(=O)OCc2cccnc2)C(C)C)cn1 (stereo not given in full)	0.19 µM	0.03 µg·h/mL	0.7%	19.8 min	6 min
Cc1cccc(CN(C)C(=O)NC(C(=O)N[C@@H](Cc2ccccc2)C[C@H](O)[C@H](Cc2ccccc2)NC(=O)OCc2cccnc2)C(C)C)n1 (stereo not given in full)	3.39 µM	1.66 µg·h/mL	32%	40.8 min	17.4 min
CC(C)C(NC(=O)OCc1nccs1)C(=O)N[C@@H](Cc1ccccc1)C[C@H](O)[C@H](Cc1ccccc1)NC(=O)OCc1cccnc1 (stereo not given in full)	2.53 µM	0.57 µg·h/mL	8.5%	39.6 min	9 min
CC(C)c1nc(COC(=O)NC(C(=O)N[C@@H](Cc2ccccc2)[C@@H](O)C[C@H](Cc2ccccc2)NC(=O)OCc2cccnc2)C(C)C)cs1 (stereo not given in full)	0.47 µM	0.22 µg·h/mL	3%	40.8 min	15 min
CC(C)C(NC(=O)OCc1ccccn1)C(=O)N[C@@H](Cc1ccccc1)C[C@H](O)[C@H](Cc1ccccc1)NC(=O)OCc1cncs1 (stereo not given in full)	2.04 µM	4.24 µg·h/mL	47%	73.8 min	22.2 min
Cc1ccc(CN(C)C(=O)NC(C(=O)N[C@@H](Cc2ccccc2)[C@@H](O)C[C@H](Cc2ccccc2)NC(=O)OCc2cccnc2)C(C)C)cn1 (stereo not given in full)	1.22 µM	0.29 µg·h/mL	6.7%	26.4 min	6 min
CC(C)c1nc(CN(C)C(=O)NC(C(=O)N[C@@H](Cc2ccccc2)C[C@H](O)[C@H](Cc2ccccc2)NC(=O)OCc2cncs2)C(C)C)cs1 (stereo not given in full)	2.62 µM	7.75 µg·h/mL	78%	72 min	120 min
Cc1ncc(COC(=O)N[C@@H](Cc2ccccc2)C[C@H](O)[C@H](Cc2ccccc2)NC(=O)C(NC(=O)N(C)Cc2csc(C(C)C)n2)C(C)C)s1 (stereo not given in full)	2.08 µM	2.37 µg·h/mL	28%	27.6 min	42 min
CC(C)C(NC(=O)N(C)Cc1csc(C2CC2)n1)C(=O)N[C@@H](Cc1ccccc1)C[C@H](O)[C@H](Cc1ccccc1)NC(=O)OCc1cncs1 (stereo not given in full)	6.46 µM	21.9 µg·h/mL	58%	66 min	130 min
CC(C)C(NC(=O)OCc1cnccn1)C(=O)N[C@@H](Cc1ccccc1)[C@@H](O)C[C@H](Cc1ccccc1)NC(=O)OCc1cccnc1 (stereo not given in full)	1.03 µM	0.21 µg·h/mL	4.5%	13.8 min	12 min
CC(C)c1ncc(COC(=O)NC(C(=O)N[C@@H](Cc2ccccc2)C[C@H](O)[C@H](Cc2ccccc2)NC(=O)OCc2cccnc2)C(C)C)s1 (stereo not given in full)	0.15 µM	0.02 µg·h/mL	0.7%	27.6 min	6 min
COc1cncc(COC(=O)NC(C(=O)N[C@@H](Cc2ccccc2)[C@@H](O)C[C@H](Cc2ccccc2)NC(=O)OCc2cccnc2)C(C)C)c1 (stereo not given in full)	0.3 µM	0.07 µg·h/mL	1.5%	71.4 min	6 min
CC(C)C(NC(=O)N(C)Cc1ccccn1)C(=O)N[C@@H](Cc1ccccc1)C[C@H](O)[C@H](Cc1ccccc1)NC(=O)OCc1cccnc1 (stereo not given in full)	2.18 µM	1.22 µg·h/mL	22%	73.2 min	9 min
CC(C)C(NC(=O)N(C)Cc1cscn1)C(=O)N[C@@H](Cc1ccccc1)C[C@H](O)[C@H](Cc1ccccc1)NC(=O)OCc1cccnc1 (stereo not given in full)	0.64 µM	0.29 µg·h/mL	5.2%	40.2 min	6 min
CC(C)C(NC(=O)N(C)Cc1csc(C(C)(C)C)n1)C(=O)N[C@@H](Cc1ccccc1)C[C@H](O)[C@H](Cc1ccccc1)NC(=O)OCc1cccnc1 (stereo not given in full)	0.38 µM	0.23 µg·h/mL	5.3%	17.4 min	19.8 min
CCc1ncc(COC(=O)NC(C(=O)N[C@@H](Cc2ccccc2)C[C@H](O)[C@H](Cc2ccccc2)NC(=O)OCc2cccnc2)C(C)C)s1 (stereo not given in full)	0.16 µM	0.01 µg·h/mL	0.5%	11.4 min	6 min
Cc1ncc(CN(C)C(=O)NC(C(=O)N[C@@H](Cc2ccccc2)[C@@H](O)C[C@H](Cc2ccccc2)NC(=O)OCc2cccnc2)C(C)C)nc1C (stereo not given in full)	1.52 µM	0.55 µg·h/mL	17%	18 min	9 min
CC(C)C(NC(=O)N(C)Cc1cscn1)C(=O)N[C@@H](Cc1ccccc1)[C@@H](O)C[C@H](Cc1ccccc1)NC(=O)OCc1cccnc1 (stereo not given in full)	3.13 µM	1.66 µg·h/mL	35%	84 min	22.2 min
CC(C)c1nc(CN(C)C(=O)NC(C(=O)N[C@@H](Cc2ccccc2)[C@@H](O)C[C@H](Cc2ccccc2)NC(=O)OCc2cncs2)C(C)C)cs1 (stereo not given in full)	2.29 µM	1.7 µg·h/mL	16%	120 min	105 min
CCc1nc(CN(C)C(=O)NC(C(=O)N[C@@H](Cc2ccccc2)C[C@H](O)[C@H](Cc2ccccc2)NC(=O)OCc2cccnc2)C(C)C)cs1 (stereo not given in full)	1.49 µM	1.05 µg·h/mL	17%	72 min	15 min
Cc1ncc(COC(=O)NC(C(=O)N[C@@H](Cc2ccccc2)[C@@H](O)C[C@H](Cc2ccccc2)NC(=O)OCc2cccnc2)C(C)C)nc1C (stereo not given in full)	0.35 µM	0.12 µg·h/mL	5.7%	18 min	12 min
COc1ccc(COC(=O)NC(C(=O)N[C@@H](Cc2ccccc2)[C@@H](O)C[C@H](Cc2ccccc2)NC(=O)OCc2cccnc2)C(C)C)nc1 (stereo not given in full)	1.2 µM	0.38 µg·h/mL	7.7%	27.6 min	12 min
COCc1nc(CN(C)C(=O)NC(C(=O)N[C@@H](Cc2ccccc2)[C@@H](O)C[C@H](Cc2ccccc2)NC(=O)OCc2cccnc2)C(C)C)cs1 (stereo not given in full)	2.29 µM	1.24 µg·h/mL	16%	33.6 min	30 min
Cc1ncc(CN(C)C(=O)NC(C(=O)N[C@@H](Cc2ccccc2)C[C@H](O)[C@H](Cc2ccccc2)NC(=O)OCc2cccnc2)C(C)C)nc1C (stereo not given in full)	1.13 µM	0.33 µg·h/mL	6.4%	18 min	15 min
CC(NC(=O)N(Cc1csc(C(C)C)n1)C1CC1)C(=O)N[C@@H](Cc1ccccc1)C[C@H](O)[C@H](Cc1ccccc1)NC(=O)OCc1cncs1 (stereo not given in full)	5.19 µM	12 µg·h/mL	76%	36.6 min	108 min
